Data from the supplement of paper PMC10307832.

Key:
Assay in all cases: relative viability (nuclei count vs DMSO), 5 days (fraction); higher = more cells survive
NVP-TAE684 + OSI-027 = compound: COc1cc(N2CCC(N3CCN(C)CC3)CC2)ccc1Nc1ncc(Cl)c(Nc2ccccc2S(=O)(=O)C(C)C)n1 [NVP-TAE684] + COc1cccc2cc(-c3nc([C@H]4CC[C@H](C(=O)O)CC4)n4ncnc(N)c34)[nH]c12 [OSI-027] (partner 0.5 µM)
How it was run: (§1)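 Cells from lung cancer lines were seeded into 1536-well plates and, one day later, dosed by pin tool. Treatments were either a single drug or a fixed dose of an anchor drug with five library-drug doses (not always all listed) in √10 steps. After 5 days, nuclei were stained in a one-step fixation (final 0.05% Triton X-100, 1% formaldehyde, 1 ug/ml Hoechst) and counted on 4× images, and relative viability is the treated-to-vehicle nuclei ratio, as the median of duplicate plates.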

NVP-TAE684 + AZD7762 = compound: COc1cc(N2CCC(N3CCN(C)CC3)CC2)ccc1Nc1ncc(Cl)c(Nc2ccccc2S(=O)(=O)C(C)C)n1 [NVP-TAE684] + NC(=O)Nc1cc(-c2cccc(F)c2)sc1C(=O)N[C@H]1CCCNC1 [AZD7762] (partner 0.2 µM)
How it was run: as §1

CUDC-101 + Vorinostat = compound: C#Cc1cccc(Nc2ncnc3cc(OC)c(OCCCCCCC(=O)NO)cc23)c1 [CUDC-101] + O=C(CCCCCCC(=O)Nc1ccccc1)NO [Vorinostat] (partner 1 µM)
How it was run: as §1

[1] = compound: C1=CC=C2C(=C1)N=C(S2)C(C#N)C3=NC(=NC=C3)NCCC4=CN=CC=C4 + Cc1nc(NC(=O)N2CCC[C@H]2C(N)=O)sc1-c1ccnc(C(C)(C)C(F)(F)F)c1 [Alpelisib] (partner 2 µM)
How it was run: as §1

NVP-TAE684 + Linsitinib = compound: COc1cc(N2CCC(N3CCN(C)CC3)CC2)ccc1Nc1ncc(Cl)c(Nc2ccccc2S(=O)(=O)C(C)C)n1 [NVP-TAE684] + C[C@]1(O)C[C@@H](c2nc(-c3ccc4ccc(-c5ccccc5)nc4c3)c3c(N)nccn32)C1 [Linsitinib] (partner 1 µM)
How it was run: as §1

Cell Line | relative viability (NVP-TAE684 + OSI-027; first compound 0.2 µM) | relative viability (NVP-TAE684 + OSI-027; first compound 0.6325 µM) | relative viability (NVP-TAE684 + OSI-027; first compound 2 µM) | relative viability (NVP-TAE684 + AZD7762; first compound 0.2 µM) | relative viability (NVP-TAE684 + AZD7762; first compound 0.6325 µM) | relative viability (NVP-TAE684 + AZD7762; first compound 2 µM) | relative viability (CUDC-101 + Vorinostat; first compound 0.01 µM) | relative viability (CUDC-101 + Vorinostat; first compound 0.03162 µM) | relative viability (CUDC-101 + Vorinostat; first compound 0.1 µM) | relative viability (CUDC-101 + Vorinostat; first compound 0.3162 µM) | relative viability (CUDC-101 + Vorinostat; first compound 1 µM) | relative viability ([1]; first compound 0.005 µM) | relative viability ([1]; first compound 0.01581 µM) | relative viability ([1]; first compound 0.05 µM) | relative viability ([1]; first compound 0.1581 µM) | relative viability ([1]; first compound 0.5 µM) | relative viability (NVP-TAE684 + Linsitinib; first compound 0.2 µM) | relative viability (NVP-TAE684 + Linsitinib; first compound 0.6325 µM) | relative viability (NVP-TAE684 + Linsitinib; first compound 2 µM)
HCC-44 | 0.525 | 0.428 | 0.218 | 1.03 | 1.08 | 1.03 | 1.04 | 1.2 | 1.13 | 1.02 | 1.11 | 0.716 | 0.835 | 0.737 | 0.915 | 0.638 | 0.785 | 0.674 | 0.482
EKVX | 0.577 | 0.698 | 0.521 | 0.634 | 0.677 | 0.375 | 0.658 | 0.658 | 0.623 | 0.617 | 0.363 | 0.763 | 0.981 | 0.902 | 0.844 | 0.69 | 0.896 | 0.897 | 0.709
NCI-H23 | 0.666 | 0.544 | 0.236 | 0.24 | 0.209 | 0.151 | 0.71 | 0.731 | 0.683 | 0.661 | 0.335 | – | 0.74 | 0.582 | 0.845 | 0.725 | 0.533 | 0.584 | 0.509
NCI-H2347 | 0.403 | 0.368 | 0.301 | 0.723 | 0.613 | 0.628 | 0.741 | 0.583 | 0.631 | 0.415 | 0.46 | 1.1 | 0.992 | 0.954 | 1.05 | 1.18 | 1.06 | 0.976 | 0.875
SK-LU-1 | 0.31 | 0.37 | 0.181 | – | – | – | 0.784 | 0.884 | 0.843 | 0.829 | 0.567 | – | 0.962 | 0.824 | 1.27 | 0.858 | 1.19 | 1.2 | 0.693
A549 | – | – | – | – | – | – | – | – | – | – | – | 0.64 | 0.9 | 0.696 | 1.02 | 0.82 | 0.539 | 0.603 | 0.532
LU99A | 0.319 | 0.265 | 0.239 | 0.342 | 0.402 | 0.265 | 0.529 | 0.477 | 0.452 | 0.389 | 0.219 | 0.509 | 0.545 | 0.522 | 0.548 | 0.536 | 0.614 | 0.558 | 0.445
NCI-H596 | 0.903 | 0.689 | 0.509 | 1.03 | 0.988 | 0.839 | 0.569 | 0.605 | 0.501 | 0.735 | 0.501 | 0.401 | 0.576 | 0.44 | 0.541 | 0.384 | 1.06 | – | 0.688
A-427 | 0.548 | 0.396 | 0.285 | 0.69 | 0.528 | 0.366 | 0.862 | 0.81 | 0.854 | 0.817 | 0.433 | 1.08 | 1.01 | 0.996 | 1.09 | 1.16 | 1.22 | – | 1.07
SW 900 | 0.536 | 0.425 | 0.703 | 0.526 | 0.476 | 0.445 | 0.48 | 0.569 | 0.31 | 0.49 | 0.217 | – | – | – | – | – | – | – | –
COR-L 105 | 0.636 | 0.441 | 0.268 | – | – | – | 0.921 | 0.663 | 0.831 | 0.611 | 0.371 | 1.06 | 1.22 | 0.856 | 0.955 | 0.678 | 0.915 | – | 0.625
LOU-NH91 | 0.746 | 0.674 | 0.571 | 0.782 | 0.425 | 0.532 | 1.04 | 0.842 | 0.833 | 0.703 | 0.43 | 0.707 | 0.752 | 0.62 | 0.723 | 0.698 | 0.936 | 0.832 | 0.665
COR-L23 | 0.818 | 0.804 | 0.316 | – | – | – | 0.35 | 0.581 | 0.394 | 0.22 | 0.0997 | 0.748 | 0.756 | 0.841 | 0.877 | 0.742 | 0.871 | 0.937 | 0.419
HCC-15 | 0.631 | 0.525 | 0.381 | 1.11 | 1.36 | 0.806 | 0.828 | 0.802 | 0.77 | 0.716 | 0.448 | 0.927 | 0.833 | 0.905 | 0.954 | 0.853 | 0.84 | 0.866 | 0.601
LCLC-103H | 0.445 | 0.467 | 0.372 | 0.877 | 0.771 | 0.664 | 0.759 | 0.81 | 0.7 | 0.692 | 0.61 | 0.926 | 0.983 | 0.971 | 0.901 | 0.915 | 1.06 | 1.23 | 1.15
HARA | 0.538 | 0.351 | 0.281 | 0.305 | 0.286 | 0.258 | 0.505 | 0.678 | 0.577 | 0.478 | 0.22 | 0.794 | 0.794 | 0.744 | 0.893 | 0.838 | 0.985 | 0.929 | 0.474
BEN | 0.27 | 0.311 | 0.265 | 0.794 | 0.615 | 0.6 | 0.656 | 0.557 | 0.573 | 0.538 | 0.386 | 0.763 | 1.1 | 0.931 | 0.99 | 0.932 | 0.804 | 0.904 | 0.848
